IC50 data for eleven compounds are collected here from patent publication US20090018134A1, “Compounds - 945” (AstraZeneca AB, priority 2007, published 2009).

As usually defined, the IC50 is the midpoint of a concentration-inhibition curve.

For this assay, the target named is T1, mTOR (Homo sapiens, UniProt P42345).
T1 construct: FLAG; made in house
T1 sequence (P42345 1362-2549): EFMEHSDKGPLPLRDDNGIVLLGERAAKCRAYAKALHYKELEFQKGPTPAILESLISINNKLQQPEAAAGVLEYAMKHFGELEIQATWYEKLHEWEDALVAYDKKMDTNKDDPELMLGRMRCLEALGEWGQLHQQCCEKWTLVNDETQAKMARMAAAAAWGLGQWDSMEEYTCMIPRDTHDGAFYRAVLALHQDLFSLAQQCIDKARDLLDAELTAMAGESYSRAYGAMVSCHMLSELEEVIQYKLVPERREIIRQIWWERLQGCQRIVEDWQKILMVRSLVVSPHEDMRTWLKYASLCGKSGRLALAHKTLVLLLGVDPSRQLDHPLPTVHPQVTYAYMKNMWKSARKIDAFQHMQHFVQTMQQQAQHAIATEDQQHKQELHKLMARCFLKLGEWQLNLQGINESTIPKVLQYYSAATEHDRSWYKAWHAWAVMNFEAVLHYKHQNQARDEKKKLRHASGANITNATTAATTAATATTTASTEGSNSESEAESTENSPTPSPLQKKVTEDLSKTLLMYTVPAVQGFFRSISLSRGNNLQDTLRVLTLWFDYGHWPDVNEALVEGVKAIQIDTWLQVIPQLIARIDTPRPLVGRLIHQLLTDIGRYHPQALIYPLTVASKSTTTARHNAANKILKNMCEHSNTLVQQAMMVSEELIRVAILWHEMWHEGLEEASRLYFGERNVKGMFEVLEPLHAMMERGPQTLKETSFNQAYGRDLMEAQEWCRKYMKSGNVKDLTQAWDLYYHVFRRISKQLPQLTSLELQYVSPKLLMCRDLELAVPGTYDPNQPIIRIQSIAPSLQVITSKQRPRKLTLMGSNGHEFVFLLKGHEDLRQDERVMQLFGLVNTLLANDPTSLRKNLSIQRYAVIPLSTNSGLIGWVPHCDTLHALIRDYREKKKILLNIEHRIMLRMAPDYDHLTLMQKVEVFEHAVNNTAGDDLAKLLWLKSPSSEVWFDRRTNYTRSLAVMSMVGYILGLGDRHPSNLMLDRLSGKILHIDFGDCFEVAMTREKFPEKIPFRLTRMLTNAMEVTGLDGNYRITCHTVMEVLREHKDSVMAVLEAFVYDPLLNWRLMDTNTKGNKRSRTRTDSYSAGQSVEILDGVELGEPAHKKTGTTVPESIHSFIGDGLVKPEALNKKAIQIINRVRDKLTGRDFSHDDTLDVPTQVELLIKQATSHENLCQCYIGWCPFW
Description: In Vitro mTOR Kinase Assay (Echo), Test (a)(ii). The settings on record: table of enzyme assay Test (a)(ii); read-out: Test (a)(ii) IC50. Type of assay: biochemical. The method, boiled down: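 FLAG-tagged human mTOR truncation (residues 1362-2549) expressed in HEK293 cells and FLAG-purified. Compounds dispensed acoustically, reaction 2 h at room temperature, stopped with EDTA. Phosphorylation of biotinylated peptide detected by AlphaScreen with anti-p70 S6K (T389) antibody overnight; IC50 reported.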
As for `C[C@H]1COCCN1c1cc(C2(S(=O)(=O)c3ccccc3)CCC2)nc(-c2ccc(NC(=O)NCCC#N)cc2)n1` [Example 36dt, 1-[4-[4-[1-(benzenesulfonyl)cyclobutyl]-6-[(3S)-3-methylmorpholin-4-yl]pyrimidin-2-yl]phenyl]-3-(2-cyanoethyl)urea], the IC50 stood at 0.37 nM.
The figure for `C[C@H]1COCCN1c1cc(C2(S(=O)(=O)c3ccccc3)CCC2)nc(-c2ccc(NC(=O)NCc3ncc[nH]3)cc2)n1` [Example 36du, 1-[4-[4-[1-(benzenesulfonyl)cyclobutyl]-6-[(3S)-3-methylmorpholin-4-yl]pyrimidin-2-yl]phenyl]-3-(1H-imidazol-2-ylmethyl)urea] is 15.2 nM; for `C[C@H]1COCCN1c1cc(C2(S(=O)(=O)c3ccccc3)CC2)nc(-c2ccc(NC(=O)Nc3ccn(C)n3)cc2)n1` [Example 36dv, 1-[4-[4-[1-(benzenesulfonyl)cyclopropyl]-6-[(3S)-3-methylmorpholin-4-yl]pyrimidin-2-yl]phenyl]-3-(1-methypyrazol-3-yl)urea] it is 4.3 nM; for `Cc1cc(NC(=O)Nc2ccc(-c3nc(N4CCOC[C@@H]4C)cc(C4(S(=O)(=O)c5ccccc5)CC4)n3)cc2)no1` [Example 36dw, 3-[4-[4-[1-(benzenesulfonyl)cyclopropyl]-6-[(3S)-3-methylmorpholin-4-yl]pyrimidin-2-yl]phenyl]-1-(5-methyl-1,2-oxazol-3-yl)urea] it is 6.24 nM.
The figure for `C[C@H]1COCCN1c1cc(C2(S(=O)(=O)c3ccccc3)CC2)nc(-c2ccc(NC(=O)NCC(F)F)cc2)n1` [Example 36dx, 1-[4-[4-[1-(benzenesulfonyl)cyclopropyl]-6-[(3S)-3-methylmorpholin-4-yl]pyrimidin-2-yl]phenyl]-3-(2,2-difluoroethyl)urea] is 2.62 nM.
Next, `C[C@H]1COCCN1c1cc(C2(S(=O)(=O)c3ccccc3)CC2)nc(-c2ccc(NC(=O)Nc3ncco3)cc2)n1` [Example 36dy, 1-[4-[4-[1-(benzenesulfonyl)cyclopropyl]-6-[(3S)-3-methylmorpholin-4-yl]pyrimidin-2-yl]phenyl]-3-(1,3-oxazol-2-yl)urea]: 6.36 nM; `C[C@H]1COCCN1c1cc(C2(S(=O)(=O)c3ccccc3)CC2)nc(-c2ccc(NC(=O)Nc3ccon3)cc2)n1` [Example 36dz, 1-[4-[4-[1-(benzenesulfonyl)cyclopropyl]-6-[(3S)-3-methylmorpholin-4-yl]pyrimidin-2-yl]phenyl]-3-(1,2-oxazol-3-yl)urea]: 2.77 nM; `C[C@H]1COCCN1c1cc(C2(S(=O)(=O)C3CC3)CCC2)nc(-c2ccc(NC(=O)NC3CC3)cc2)n1` [Example 36e, 3-cyclopropyl-1-[4-[4-(1-cyclopropylsulfonylcyclobutyl)-6-[(3S)-3-methylmorpholin-4-yl]pyrimidin-2-yl]phenyl]urea]: 6.67 nM.
In the case of `C[C@H]1COCCN1c1cc(C2(S(=O)(=O)c3ccccc3)CC2)nc(-c2ccc(NC(=O)NCC(F)(F)F)cc2)n1` [Example 36ea, 1-[4-[4-[1-(benzenesulfonyl)cyclopropyl]-6-[(3S)-3-methylmorpholin-4-yl]pyrimidin-2-yl]phenyl]-3-(2,2,2-trifluroethyl)urea], the IC50 turned out to be 8.84 nM.
The figure for `C[C@H]1COCCN1c1cc(C2(S(=O)(=O)c3ccccc3)CC2)nc(-c2ccc(NC(=O)Nc3cn(C)cn3)cc2)n1` [Example 36eb, 1-[4-[4-[1-(benzenesulfonyl)cyclopropyl]-6-[(3S)-3-methylmorpholin-4-yl]pyrimidin-2-yl]phenyl]-3-(1-methylimidazol-4-yl)urea] is 3.11 nM; for `C[C@@H](CO)NC(=O)Nc1ccc(-c2nc(N3CCOC[C@@H]3C)cc(C3(S(=O)(=O)c4ccccc4)CC3)n2)cc1` [Example 36ec, 1-[4-[4-[1-(benzenesulfonyl)cyclopropyl]-6-[(3S)-3-methylmorpholin-4-yl]pyrimidin-2-yl]phenyl]-3-[(2S)-1-hydroxypropan-2-yl]urea] it is 3.21 nM.
